# In patent US20200345055A1, “ACTIVATION OF CONDITIONALLY-EXPRESSED OLIGOSACCHARIDE PATHWAYS DURING FERMENTATION OF PROBIOTIC STRAINS” (EVOLVE BIOSYSTEMS, INC., priority 2018, published 2020):
# “Also recorded” adds a separate entry of the source.
# Columns and labels:
# [1] = tested on: Blon_2343 (carbohydrate ABC transporter inner membrane protein); assay: qRT-PCR gene expression in B. infantis EVC001, relative to Blon_0393, 2^-ΔΔCt; assay type: cell-based, Bifidobacterium longum subsp. infantis EVC001; conditions: 10 g/L activator + 10 g/L glucose, 16 hours; control 20 g/L glucose = 1
# Experimental: (§1) In some embodiments, gene activation relates to Blon_0881 and Blon_2343 and their expression is greater than 1; that is, when the delta delta cycle threshold (2^−ΔΔ^Ct) is greater than 1, 2^−ΔΔ^Ct is calculated using Blon_0393, or another constitutively expressed gene as a reference. The result (activation) is the fold change (2^−ΔΔ^Ct>1) of gene expression, determined based on the 2^−ΔΔ^Ct method. (Livak K and Schmittgen T. (2001). Analysis of relative gene expression data using qRT-PCR and the 2^−ΔΔ^Ct Method. Methods: 25: 402-8). In other embodiments, other genes from Table 1 are used in addition to Blon_0881 and Blon_2343.
# (§2) B. infantis EVC001 (Bifidobacterium longum subsp. infantis EVC001 deposited under ATCC Accession No. PTA-125180) was grown under 3 different experimental conditions for 16 hours. The carbon source was added to the initial culture media in the following amounts: 1) 20 g/L glucose; 2) 10 g/L N-acetyl-lactosamine and 10 g/L glucose; and 3) 10 g/L NAG and 10 g/L glucose. The cells were harvested and RNA was extracted to look specifically at gene expression of Blon_0881 and Blon_2343 by qRT-PCR relative to Blon_0393 and expressed as 2^−ΔΔ^Ct. Activation is determined by comparing against the control (glucose). A result greater than 1 is considered activated N-acetyl-lactosamine is an activator of B. infantis EVC001.
# [2] = tested on: Blon_0881 (glucosamine-6-phosphate isomerase); assay: as above; assay type: cell-based, Bifidobacterium longum subsp. infantis EVC001; conditions: 10 g/L activator + 10 g/L glucose, 16 hours; control 20 g/L glucose = 1
# Experimental: as §1, §2
# B. infantis EVC001 = assay: Activation of B. infantis EVC001 judged from Blon_0881 and Blon_2343 expression against glucose control; assay type: cell-based, Bifidobacterium longum subsp. infantis EVC001; conditions: 10 g/L activator + 10 g/L glucose, 16 hours
# Experimental: as §1, §2
# [3] = tested on: fucosidase activity in B. infantis; assay: Fucosidase activity of dried B. infantis final product (colorimetric nitrophenol release, absorbance at 450 nm); assay type: cell-based, Bifidobacterium infantis
# Experimental: FIG. 1. A comparison of fucosidase activity between a final product of B. infantis grown on N-acetylglucosamine (NAG) and a final product of B. infantis grown on glucose/lactose. B. infantis grown on 2.5% w/v NAG is compared to B. infantis grown on glucose/lactose. The absorbance due to the colorometric change resulting from fucosidase activity in the supernatant is measured using a spectrophotometer at 450 nm. […] A fermentation media was made that contained NAG as 100% of the carbon source. This represented 2% of the total media composition (wt/vol). The media also contained sources of nitrogen, minerals, reducing agents and was autoclaved prior to addition of a B. infantis inoculum. The fermentation was carried out under anaerobic conditions for up to 72 hours, until the fermentation reached the stationary phase. The cells were separated from the spent media and concentrated. A cryoprotectant was mixed with the cells to stabilize before freeze-drying. Once dried, the formulation was analyzed for fucosidase activity compared to a dried formulation that had been grown on glucose/lactose. […] The colorimetric difference was confirmed using a spectrophotometer (FIG. 1).
# [4] = tested on: N-acetylglucosamine-6-phosphate deacetylase gene in L. plantarum; assay: qRT-PCR of N-acetylglucosamine-6-phosphate deacetylase in Lactobacillus plantarum, normalized to rpoB; assay type: cell-based; conditions: for activation of L. plantarum (fold change of N-acetylglucosamine-6-phosphate deacetylase expression): FIG. 3
# Description: FIG. 3. Average relative fold change in the expression of the genes coding for N-acetylglucosamine-6-phosphate deacetylase under different concentrations of N-acetylglucosamine (NAG) added to the culture media for Lactobacillus plantarum. Culture media with different concentrations of NAG (3, 12.5 and 20 g/L) were used to ferment Lactobacillus plantarum. The cells were harvested and RNA was isolated for qRT-PCR. Using specific primers for N-acetylglucosamine-6-phosphate deacetylase, activation was assessed using normalization to a housekeeping gene (rpoB) found in L. plantarum. […] Three different fermentation media compositions were made that contained: 1) 100% NAG (25 g/L); 2) 50% NAG (12.5 g/L) with 50% Lactose (12.5 g/L); and 3) 12.5% NAG (3 g/L) with 87.5% lactose (22 g/L). This represented about 2% of the total media composition (wt/vol). The media also contained sources of nitrogen, minerals, reducing agents and was autoclaved prior to addition of L. plantarum inoculum. The fermentation was carried out under anaerobic conditions for 24 hours until the cells reached the stationary phase. The cells were harvested and RNA extracted (Sambrook, Joseph. & Russell, David W. & Cold Spring Harbor Laboratory. (2012). Molecular cloning: a laboratory manual. Cold Spring Harbor, N.Y: Cold Spring Harbor Laboratory). Specific primers for Lactobacillus were used for the following gene N-acetylglucosamine-6-phosphate deacetylase (activation gene) using normalization to a housekeeping gene (rpoB) found in L. plantarum.
# [5] = tested on: Blon_2343 and Blon_0881 in B. infantis; assay: qRT-PCR of Blon_2343 and Blon_0881 in B. infantis grown on NAG/glucose, normalized to Blon_0393; assay type: cell-based; conditions: all tested concentrations of NAG (5-20 g/L with glucose to 20 g/L), harvested after 6 or 12 hours; FIG. 2
# Experimental: FIG. 2. Average relative fold change in gene expression of the genes Blon_2343 and Blon_0881 in B. infantis coding a carbohydrate ABC transporter inner membrane protein and a glucosamine-6-phosphate isomerase or NagB, respectively. Different concentrations of N-acetylglucosamine (NAG) were added to the culture media used to ferment B. infantis. The cells were harvested after 6 hours (A) or 12 hours of growth (B) and RNA was isolated for quantitative reverse transcription PCR (qRT-PCR). Activation was assessed using specific primers for Blon_2343 and Blon_0881 and normalized to a housekeeping gene (Blon_0393). The dashed horizontal line represents no change in expression. […] Cells grown in glucose alone (0 g/L NAG) show no activation.
# In some embodiments, gene activation relates to Blon_0881 and Blon_2343 and their expression is greater than 1; that is, when the delta delta cycle threshold (2^−ΔΔ^Ct) is greater than 1, 2^−ΔΔ^Ct is calculated using Blon_0393, or another constitutively expressed gene as a reference. The result (activation) is the fold change (2^−ΔΔ^Ct>1) of gene expression, determined based on the 2^−ΔΔ^Ct method. […]
# A series of fermentations were conducted where B. infantis was grown on various concentrations of NAG and glucose shown in Table 5. The cells were grown for a determined period of time (i.e 6 and 12 hours) and spun down. […]
"fucosidase activity (absorbance at 450 nm) ([3]; B. infantis final product grown on 2.5% w/v NAG, compared to cells grown on glucose/lactose, FIG. 1)","release of nitrophenol from aryl-substituted glycoside via fucosidases ([3]; dried B. infantis grown on NAG as 100% of carbon source, 2% wt/vol of media, up to 72 hours, compared to glucose/lactose)","activation of L. plantarum (fold change of N-acetylglucosamine-6-phosphate deacetylase expression) ([4]; 3 g/L NAG (12.5%) with 22 g/L lactose, 24 hours)","activation of L. plantarum (fold change of N-acetylglucosamine-6-phosphate deacetylase expression) ([4]; 12.5 g/L NAG (50%) with 12.5 g/L lactose, 24 hours)",activation of L. plantarum (fold change of N-acetylglucosamine-6-phosphate deacetylase expression) ([4]; 20 g/L NAG in culture media),"activation of L. plantarum (N-acetylglucosamine-6-phosphate deacetylase expression) ([4]; 100% NAG (25 g/L) as carbon source, 24 hours)",Compound,Mean 2^-ΔΔCt BLON_2343 [1],Mean 2^-ΔΔCt BLON_0881 [2],Interpretation (activation; result greater than 1 is considered activated) (B. infantis EVC001),"relative fold change in gene expression of Blon_2343 and Blon_0881 (2^ΔΔCt), activation [5]"
,,,,,,CC(=O)N[C@H]1C(O)O[C@H](CO)[C@@H](O[C@@H]2O[C@H](CO)[C@H](O)[C@H](O)[C@H]2O)[C@@H]1O (stereo partly shown) [N-acetyl-lactosamine],6.94,10.50,activator; also recorded: Activated,
had fucosidase activity,release nitrophenol,did not,activated; also recorded: activation,activated,activation,"CC(=O)N[C@H]1C(O)O[C@H](CO)[C@@H](O)[C@@H]1O (stereo partly shown) [NAG, N-acetylglucosamine]",2.10,3.41,Activated,> 1
